B1: Clone 488: thermostable viral DNA polymerase clone, polypeptide SEQ ID NO: 4 (protein)
chain: AVGTWITTLQKLGFTYEELEDKEVLDLLSIARLVLPERFKENGFSLDVVLKEVLGIDYKFDKKTIRKTFTPLLMTQEQLEYIASDVIYLPALKEKLDEKFNKRLWLPYILDMEATKILAEVSNNGMPFLKEKAKEELSRLSKELEGLRKELGFNPNSPKETQKVLNTPDTSEATLMKLIISNSSKKAIAEKVIQARKIQKVIAMINKYLNYDRVKGTFWTTTAPSGRMSCDKENLQQIPRSIRYLFGFDENSDKTLVIADYPQIELRLAGVLWKEPKFIQAFNEGKDLHKQTASIIYGIPYEEVNKEQRQIAKSANFGLIYGMSVEGFANYCIKNGIPMDTQTAQHIVNSFFNFYGKIAEKHKEGNLIIQSQGIAEGYTWLGRRYIAQRLNDYLNYQIQGSGAELLKKAVMEIKSKYPYIKIVNLVHDEIVVEAYKDDAQDIARIIKQEMENAWEWCIQEAQKLGVDLTPVKLECENPTISNVWEK
modifications: Uncultured newly isolated virus
B2: Clone 4110: thermostable viral DNA polymerase clone, polypeptide SEQ ID NO: 8 (protein)
chain: MGLDQILDMSYFVDSGATMLKLILRGSGGKNVVTVPAPFNPYFFIKKRDLDRAQSILPDYARVEDADAITAEGERVVKISVPTPPLVRVVREKLHEEGIESYEADIPYTRRVMIDLDLKVAYPETVAAFDIEVDATKGFPDINNPQSRVLSISVYDGSEEIFLCSDDEIEMFKEFNKLLRKYDVLIGWNSAAFDYPYLVERAKVLGYYVDEEMFQHVDIFGIFQTYFKREMSDFKLKTVALKVLGSKVPLGALLDFERPGDIRKLTEFFEKRRDLLKLYNMDQTKAIWMINSESGVLQTYITQARLANIIPWHRVSPRTDSSQEYISYNNDCRDLVLKKALAHKPRIVFPSKKNGENEDWDEDAKESTYTGAIVFNPIPGLWENVVLLDFASMYPRVIMTFNISYDTWTPNPGENDILAPHGGFITSREGFLPTVLRELEGYRSLAKKMVDAYEPGDPMRVIWNARQFAFKLILVSAYGVAGFRHSRLYRVEIAESITGYTRDAIMKAREVIERHGWRVLYGDTDSLFLYNPKITSVEKASEVASSELLPAINSFIRDYVVERWRVPRSRVVLEFKVDRVYSKLKLLSVKKRYYGLVAWEERMLEQPYIQIKGLEARRGDWPDLVKEIQSEVIKLYLLEGPIAVDRYLKEMKRKLLSGEIPLEKLVIKKHLNKRLDEYKHNAPHYRAARKLLEMRFPVRTGDRIEFIYLDDKVIPMVPGLKLSEVDLKKWWRKYVVPVVERLEIESRGS
modifications: Uncultured newly isolated virus
B3: Clone 967: thermostable viral DNA polymerase clone, polypeptide SEQ ID NO: 14 (protein)
chain: MQKEIPFNYNSPKQTAKLFGIDSSSKDVLMDLALRGNEVAKKVLEARQIEKSLAFAKDLYDIAKKNGGRIHGNFFTTTAPSGRMSCSDINLQQIPRRLRQFIGFETEDKKLITADFPQIELRLAGVMWNEPEFLKAFRDGIDLHKLTASILFDKKINEVSKEERQIGKSANFGLIYGISPKGFAEYCISNGINITEEMAIEIVKKWKKFYRKIAEQHQLAYERFKYAEFVDNETWLNRPYRAYKPQDLLNYQIQGSGAELFKKAIILLKETKPDLKLVNLVHDEIVVETSTEEAEDIALLVKQKMEEAWDYCLEKAKEFGNNVADIKLEVEKPNISSVWEKE
modifications: Uncultured newly isolated virus

Assays:
[1] = target: polymerase 3173 (SEQ ID NO:6) mutant D49A (uncultured virus, UniProt R4KMS7, D72A); assay: Inhibition of 5' Rox-labeled primer extension by chain terminators (ABI 310 Genetic Analyzer); format: biochemical; conditions: ddNTPs 50, 500 and 5000 μM each vs 50 μM each dNTP (up to 100-fold molar excess); 70° C., 30 minutes
Description: (§1) In separate reactions, ddGTP, ddATP, ddTTP, and ddCTP were added to the above mix in concentrations of 50, 500 and 5000 μM each. Five units of polymerase 3173 mutant D49A were added and the reactions were incubated for 30 minutes at 70° C. Extension of the primer was detected by the ABI 310 Genetic Analyzer in Gene Scan mode.

[2] = target: polymerase 3173 (SEQ ID NO:6) double mutant D49A/F418Y, SEQ ID NO:27 (uncultured virus, UniProt R4KMS7, D72A/F441Y); assay: Fluorescent primer extension assay with ddGTP; format: biochemical
Description: as §1
The polymerase 3173 double mutant D49A/F418Y was also tested in the fluorescent primer extension assay described above.

lacIq gene = assay: Fidelity assay, lacIq amplification with blue/white colony count; conditions: 25 PCR cycles; target size 349 for lacIq
Description: Fidelity was determined by a modification of the standard assay in which the lacIq gene is amplified by the DNA polymerase of interest and inserted into a plasmid containing genes encoding a functional lacZ alpha peptide and a selectable marker. Primers of SEQ ID NOS:28 and 29 were used to amplify a sequence containing both the lacIq and the KanR gene. […] Normally a white phenotype is seen for clone containing this construct when plated on X-Gal. Mutation of the lacIq results in a blue phenotype for the colonies when plated on X-Gal.
For high fidelity PCR amplification, five units of the wild-type (proofreading) DNA polymerase 3173 (SEQ ID NO: 6) was tested using the following mix (50 mM Tris HCl (pH 9.0 at 25° C.), 50 mM KCl, 10 mM (NH4)2SO4, 1.5 mM MgSO4, 1.5 mM MgCl2, 0.1% triton-X100, 250 mM ectoine and 0.2 mM each of dGTP, dATP, dTTP and dCTP. Opposing primers of SEQ ID 28 and 29 (1 μM each) amplified the expected 2 k kb product from template SEQ ID 30 (10 ng). After thermal cycling (94° C. for 1 minute, 25 cycles of (94° C. for 15 seconds, 60° C. for 15 seconds, 72° C. for 2.5 minutes) and 72° C. 7 minutes), reaction products were quantified to determine “fold amplification,” (see below) using agarose gel electrophoresis. Both primers contain Eco109I sites. The PCR product was digested with Eco109I and inserted into the Eco109I site of pUC19. 10 G cells transformed by the construct were plated on LB plates containing ampicillin (100 μg/ml), kanamycin (30 μg/ml) and X-Gal (50 μg/ml). Blue and white colony counts were used for the fidelity determinations.

[3] = tested on: ROX-labeled 37 nt primer annealed to 41 nt template; assay: Primer extension assay of heat-treated clone extracts (ABI 310 capillary electrophoresis); format: biochemical; conditions: extract heated 70° C. 10 min; reaction 70° C. 10 minutes
Description: 34 complete polymerase genes from the library described in Examples 3 and 4, as well as 24 additional viral genes from three other similarly prepared libraries, were constitutively expressed in the E. CLONI 10 G cells (Lucigen, Middleton, Wis.). The proteins were extracted, heated to 70° C. for 10 minutes and tested for DNA polymerase activity using a primer extension assay as follows.
A primer of 37 nucleotides having the sequence shown in SEQ ID NO:23, labeled on its 5′ end with ROX, was annealed to a template of 41 nucleotides having the sequence shown in SEQ ID NO:24. […] The reaction was incubated at 70° C. for 10 minutes. The reactions were analyzed using an ABI 310 Genetic Analyzer. […] Of the 58 clones tested, a total of ten clones expressed detectable DNA polymerase (DNAP) activity. The clone number and corresponding polynucleotide sequence, polypeptide sequence, sequence similarity and E (expect)-values for these polymerases are shown below in Table 1.

Chain of polymerase 3173 (SEQ ID NO:6) mutant D49A (R4KMS7 entry or part of it D72A): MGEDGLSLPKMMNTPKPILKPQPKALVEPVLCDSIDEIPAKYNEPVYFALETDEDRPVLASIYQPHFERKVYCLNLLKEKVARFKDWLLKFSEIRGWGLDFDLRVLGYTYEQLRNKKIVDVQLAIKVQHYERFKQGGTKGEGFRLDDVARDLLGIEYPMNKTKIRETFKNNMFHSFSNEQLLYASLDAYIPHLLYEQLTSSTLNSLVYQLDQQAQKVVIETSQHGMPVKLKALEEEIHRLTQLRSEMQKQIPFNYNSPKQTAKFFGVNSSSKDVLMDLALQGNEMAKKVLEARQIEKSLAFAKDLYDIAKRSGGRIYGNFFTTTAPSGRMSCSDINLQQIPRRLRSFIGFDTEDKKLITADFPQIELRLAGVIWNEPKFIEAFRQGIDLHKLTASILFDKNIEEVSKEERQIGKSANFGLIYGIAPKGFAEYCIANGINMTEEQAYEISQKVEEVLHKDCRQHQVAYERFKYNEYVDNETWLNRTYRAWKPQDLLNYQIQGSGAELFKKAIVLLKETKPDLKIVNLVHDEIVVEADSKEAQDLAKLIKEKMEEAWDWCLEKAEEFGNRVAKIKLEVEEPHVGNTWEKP
Chain of polymerase 3173 (SEQ ID NO:6) double mutant D49A/F418Y, SEQ ID NO:27 (R4KMS7 entry or part of it D72A/F441Y): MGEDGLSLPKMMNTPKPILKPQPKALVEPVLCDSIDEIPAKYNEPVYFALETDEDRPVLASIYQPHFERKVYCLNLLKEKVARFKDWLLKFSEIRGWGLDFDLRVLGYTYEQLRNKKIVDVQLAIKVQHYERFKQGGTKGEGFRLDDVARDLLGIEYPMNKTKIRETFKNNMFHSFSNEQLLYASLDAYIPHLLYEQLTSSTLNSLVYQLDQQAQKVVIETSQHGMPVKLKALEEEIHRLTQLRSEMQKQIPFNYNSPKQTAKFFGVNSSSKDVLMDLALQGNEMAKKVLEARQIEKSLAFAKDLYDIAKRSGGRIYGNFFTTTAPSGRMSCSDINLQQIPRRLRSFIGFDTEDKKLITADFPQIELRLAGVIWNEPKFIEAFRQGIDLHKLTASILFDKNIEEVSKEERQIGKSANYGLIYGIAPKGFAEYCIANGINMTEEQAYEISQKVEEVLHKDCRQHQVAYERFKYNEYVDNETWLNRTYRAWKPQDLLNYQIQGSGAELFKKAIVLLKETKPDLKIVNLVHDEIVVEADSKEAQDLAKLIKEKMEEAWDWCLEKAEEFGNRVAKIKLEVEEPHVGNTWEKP

Molecule | inhibition of primer extension [1] | Exo (exonuclease activity, either 3′-5′ or 5′-3′) [3] | also measured
Nc1ncnc2c1ncn2[C@H]1CC[C@@H](COP(=O)(O)OP(=O)(O)OP(=O)(O)O)O1 [ddATP] | no inhibition of primer extension was detected |  | 
Nc1ccn([C@H]2CC[C@@H](COP(=O)(O)OP(=O)(O)OP(=O)(O)O)O2)c(=O)n1 [ddCTP] | no inhibition of primer extension was detected |  | 
Nc1nc2c(ncn2[C@H]2CC[C@@H](COP(=O)(O)OP(=O)(O)OP(=O)(O)O)O2)c(=O)[nH]1 [ddGTP] | no inhibition of primer extension was detected |  | inhibition of primer extension ([2]; 0.2× ratio of ddGTP:dGTP): nearly complete inhibition of primer extension, with no extension continuing beyond the fourth G residue; inhibition of primer extension ([2]; 2× ratio of ddGTP:dGTP): almost completely inhibited any extension
Cc1cn([C@H]2CC[C@@H](COP(=O)(O)OP(=O)(O)OP(=O)(O)O)O2)c(=O)[nH]c1=O [ddTTP] | no inhibition of primer extension was detected |  | 
Taq: standard commercial DNA polymerase (Lucigen) used for comparison [reference compound] |  |  | Fidelity (lacIq gene): 9.76E+03
B1 |  | No | 
B2 |  | No | 
B3 |  | No | 

From US8093030B2, “Thermostable viral polymerases and methods of use” (Lucigen Corporation, priority 2005, dated 2012)
